This series can be described thus: gradient 5% acetonitrile 3 min, to 50% in 2 min, to 85% in 15 min, held 3 min, 100 µL/min. To be noted: column: Zorbax Extend-C18 2.1 x 50 mm; eluents: water / acetonitrile, 0.1% formic acid. Put shortly:
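The mobile phases were water and acetonitrile, each with 0.1% formic acid, pumped at 100 μL/min through a Zorbax Extend-C18 column (2.1 × 50 mm, 1.8 μm). Pure standards were injected as mixtures of ~100 molecules and detected by a quadrupole time-of-flight mass spectrometer in positive and negative ionization mode. Retention time came from computationally picked adduct peaks, each inspected by hand.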
For the molecule `CCOC(=O)c1cc(S(=O)(=O)N2CCCC2C(=O)Nc2cccc(Br)c2)cn1C` (stereo unspecified), the RP-LC retention time is 1010 s.
Molecule `COc1ccc(NC(=O)CSc2cc(N3CCN(c4ccccc4OC)CC3)ncn2)cc1Cl` had an RP-LC retention time of 981 s.
To `CCNC(=O)NCC1CCN(S(=O)(=O)C2CC2)CC1` belongs 579 s; to `CC(=O)N1CCC2(CC1)OC(=O)C(C)=C2C(=O)NCCCN1CCN(c2cc(C)ccc2C)CC1`, 639 s.
`COC(=O)c1ccc(Cn2cnc3nc4c(cc3c2=O)CCCC4)cc1` yielded an RP-LC retention time of 767 s.
In the case of `CCc1nc2cc3c(cc2n1CC(=O)N1CCCCC1)OCCO3`, the RP-LC retention time amounted to 600 s.
`O=C(CCn1nnc2cc(-c3noc(-c4ccccc4Br)n3)ccc21)N1CCCC1`: the RP-LC retention time was 954 s.
As to `CN(C)C(=O)c1ccc2c(c1)N(CC(=O)Nc1ccc3c(c1)OCCO3)C(=O)C1CCCCN21` (stereo unspecified), the RP-LC retention time stood at 750 s.
On to `O=C(CN1C(=O)NC2(CCCCC2)C1=O)Nc1ccc(F)cc1F`, for which the RP-LC retention time is 736 s.
Molecule `COc1ccc(NC(=O)N2CC(N(Cc3ccncc3)CC(C)C)C2)cc1OC` returned an RP-LC retention time of 622 s.
Molecule `COC(=O)c1nnc2c(-c3ccc(F)cc3)c(C)nn2c1C` returned an RP-LC retention time of 855 s.
Regarding `CC1(C(=O)NC2CCCCCCC2)CN(S(C)(=O)=O)CC(=O)N1c1ccccc1Cl` (stereo unspecified), the RP-LC retention time stood at 924 s.
The molecule `O=C(Cn1ncc2c(c1=O)N(C1CC1)C(=O)CS2)NC1CCCCC1` registered an RP-LC retention time of 672 s.
`O=c1c2cc(-c3cccc4ccccc34)nn2ccn1Cc1nc(-c2ccccc2)no1` gave an RP-LC retention time of 1140 s.
To `Cc1ccc2c(c1)cc(S(=O)(=O)c1ccccc1)c(=O)n2CC(=O)N1CCCCC1` belongs 919 s; to `O=C([C@H]1C[C@@H](F)CN1S(=O)(=O)Cc1ccc(Cl)cc1)N1CCOCC1`, 747 s; to `O=C(CC1CCCC1)NC(c1ccccc1)c1nnc(N2CCCCC2)o1` (stereo unspecified), 881 s.
`O=C(NC1CCN(c2cc(-c3cccs3)[nH]n2)C1)c1ccc2nc[nH]c2c1` (stereo unspecified) had an RP-LC retention time of 564 s.
To `O=C(CN1C(=O)CCCc2cc(S(=O)(=O)N3CCCC3)ccc21)NCc1ccc(F)cc1` belongs 792 s.
To `Cc1ccc2nc(-c3ccc(N4CCOCC4)cc3)c(Nc3ccc4c(c3)OCO4)n2c1` belongs 690 s.
As for `Cn1cc(CN2CCC(C(=O)NCCN3CCOCC3)CC2)c2cc(Cl)ccc21`, the RP-LC retention time was 568 s.
Regarding `Cc1ccc(S(=O)(=O)N2CCC(c3cc(N)on3)CC2)cc1`, the RP-LC retention time amounted to 789 s.
As for `CCc1ccccc1NC(=O)N1CCC(N(CCC(C)C)C2CCOCC2)CC1`, the RP-LC retention time worked out at 665 s.
The molecule `Cc1ccc(C(=O)N2CCCCCNC(=O)[C@@H]3CCC[C@@H]32)s1` gave an RP-LC retention time of 740 s.
In turn, `CCc1c(C(=O)O)nnn1Cc1ccccc1C` registered an RP-LC retention time of 728 s.
Molecule `COCCn1cc(CCNC(=O)Nc2c(F)cccc2F)c2cccnc21` registered an RP-LC retention time of 660 s.
For the molecule `c1ccc2sc(C3(NCC4CC4)CCCCC3)cc2c1`, the RP-LC retention time is 799 s.
The molecule `CCOC(=O)c1ccc(NC(=O)C2CCN(S(=O)(=O)c3cn(CC)cn3)CC2)cc1` showed an RP-LC retention time of 774 s.
Molecule `CCCn1ccc2sc(C)c(C(=O)NCc3cc(F)ccc3F)c2c1=O` gave an RP-LC retention time of 940 s.
With `Cc1nn(C(C)C(=O)NCc2ccco2)c(=O)c2nn(-c3ccccc3)c(C)c12` (stereo unspecified), the RP-LC retention time worked out at 761 s.
For `CCN1C(=O)COc2ccc(-c3csc(NC(=O)C4CCCCC4)n3)cc21`, the RP-LC retention time stood at 1050 s.
The result for `Cc1cc(C)n(-c2ncnc3c2cnn3Cc2ccccc2Cl)n1` reads 1330 s; that for `CCS(=O)(=O)N1N=C(c2cccs2)CC1c1ccc2nccnc2c1` (stereo unspecified), 724 s; that for `O=C(c1cccs1)N1CCc2ccc([N+](=O)[O-])cc2C1`, 792 s.
To `CC1(C(=O)Nc2ccc(F)c(Cl)c2)Oc2cccnc2NC1=O` (stereo unspecified) belongs 730 s.
In turn, `COc1ccc(S(=O)(=O)NC2CCN(C(=O)c3ccnn3C)CC2)cc1` gave an RP-LC retention time of 658 s.
The molecule `Nc1c(C(=O)NCc2ccccc2Cl)nsc1C(=O)N1CCN(c2ccccn2)CC1` returned an RP-LC retention time of 715 s.
`O=C(NCCCn1ccnc1)C1CC(=O)N(CCc2c[nH]c3ccc(Cl)cc23)C1` (stereo unspecified) gave an RP-LC retention time of 603 s.
For `CCCN1C(=O)Cc2ccccc2C1C(=O)NCC1CCCCC1` (stereo unspecified), the RP-LC retention time is 881 s.
Molecule `CCOCCCNC(=O)c1nc(Nc2ccccc2)c2ccccc2n1` displayed an RP-LC retention time of 1130 s.
The result for `COC(=O)c1ccc(CSc2nnc(N3CCN(c4ccc(F)cc4)CC3)s2)o1` reads 927 s; that for `CN1CCC(NC(=O)c2ccc3c(c2)N(S(=O)(=O)c2ccccc2)CC3)CC1`, 610 s.
With `O=C(O)c1nnn(-c2cccc(Cl)c2)c1-c1ccncc1`, the RP-LC retention time was 657 s.
The molecule `c1ccc(-c2nc3ccccc3nc2N2CCOCC2)cc1` yielded an RP-LC retention time of 995 s.
To `CN(CC1CCOCC1)C(=O)c1cccs1` belongs 664 s; to `Cc1ccc(-n2ncc3c(NCCN(C)C)ncnc32)cc1Cl`, 669 s.
The result for `Cc1ccc(N2CCN(c3nccn4nc(-c5ccc(Cl)cc5)cc34)CC2)cc1` reads 1400 s; that for `O=c1n(Cc2c(F)cccc2Cl)nc2ccc(S(=O)(=O)N3CCOCC3)cn12`, 821 s; that for `CN(CC1(C)CCOCC1)S(=O)(=O)c1cccc(C(F)(F)F)c1`, 980 s.
To `Cc1ccc(S(=O)(=O)n2nc(-c3cccc(C)c3)nc2N)cc1` belongs 957 s; to `Cc1nc(-c2csc(S(=O)(=O)N3CCC(C(=O)Nc4ccc(Cl)cc4)CC3)c2)no1`, 986 s.
For the molecule `COC(=O)CSCC(=O)Nc1nccs1`, the RP-LC retention time was determined as 610 s.
In the case of `CCC(C(=O)Nc1ccc(-c2nc(Cn3cccn3)c(C)o2)cc1)c1ccccc1` (stereo unspecified), the RP-LC retention time worked out at 962 s.
In turn, `O=C(N1CCC(c2nc(C3CCOCC3)no2)CC1)C1(c2ccccc2)CC1` gave an RP-LC retention time of 817 s.
In turn, `O=C1NCCCCCCN(Cc2ccncc2)[C@@H]2CN(C3CCC3)CC[C@H]12` showed an RP-LC retention time of 559 s.
The result for `COc1ccc(N2CC(c3nc(-c4ccc(N(C)C)cc4)no3)CC2=O)cc1Cl` (stereo unspecified) reads 1030 s; that for `Cc1ccccc1CNC(=O)c1cc2n(n1)CCCC2`, 811 s.
On to `CCCNc1cc(N2CCC(CCC(=O)N(CC)CC)CC2)ncn1`, for which the RP-LC retention time amounted to 538 s.
For the molecule `CCOc1ccc(-c2noc(CS(=O)(=O)c3cc(C)c(C)cc3C)n2)cc1`, the RP-LC retention time was 1110 s.
As for `CC(C)Cn1cc(CCNC(=O)c2cccc(C(F)(F)F)c2)c2cccnc21`, the RP-LC retention time is 940 s.
Consider `Cc1nnc(-c2ccc3ccn(CC(=O)NCc4ccccc4Cl)c3c2)o1`, for which the RP-LC retention time was found to be 779 s.
As to `O=C(NC1CCCCC1)C1CCN(c2cncnc2N2CCCC2)CC1`, the RP-LC retention time is 637 s.
To `O=C(NCc1ccc2c(c1)OCO2)c1c(O)c2cccnc2n(Cc2ccccc2)c1=O` belongs 1290 s; to `CCC(=O)N1CCc2c(sc3ncnc(N4CCN(C)CC4)c23)C1`, 546 s.
To `Cc1cccc(Cn2c(=O)n(CCNC(=O)c3cccn3C)c3ncccc32)c1` belongs 826 s; to `CCOC(=O)C1CCN(C(=O)CCCn2c(=O)c3cccn3c3ccc(Br)cc32)CC1`, 974 s; to `CC1CCN(S(=O)(=O)c2cc(C(=O)NCc3ccc(Br)cc3)n(C)c2)CC1`, 1080 s.
For the molecule `Cc1cccc(NC(=O)N2CCCC2C(=O)NC(C)C)c1` (stereo unspecified), the RP-LC retention time was found to be 690 s.
As to `CCc1ccccc1Nc1nc(-c2ccc(Cl)cc2)cs1`, the RP-LC retention time came to 1310 s.
The result for `COc1cc(NC(=O)C2CCN(C(=O)c3ncn4c3COC(c3ccccc3)C4)CC2)cc(OC)c1` (stereo unspecified) reads 846 s; that for `CC1(CNS(=O)(=O)c2ccc(F)cc2F)CCOCC1`, 779 s; that for `O=C(NC(c1ccccc1)c1nnc(N2CCCC2)o1)c1ccc(F)c(Cl)c1` (stereo unspecified), 899 s.
Molecule `COc1cccc(CNC2=NCCNC23CCN(S(=O)(=O)c2c(C)cc(C)cc2C)CC3)c1` gave an RP-LC retention time of 826 s.
To `COc1ccc(C(=O)N2CCC3(C2)C(=O)N(C)c2ccccc23)cc1OC` (stereo unspecified) belongs 714 s.
The result for `Cn1c(=O)c2cc(C(=O)Nc3ccc(Cl)cc3)cnc2n(-c2ccccc2)c1=O` reads 962 s; that for `COc1ccc(Cl)c2c(=O)c3c([nH]c12)CCN(CC(=O)Nc1cc(C)ccc1C)C3`, 649 s.
`Cc1ccn2c(NC(=O)c3ccccc3F)c(-c3ccccc3)nc2c1`: the RP-LC retention time turned out to be 653 s.
Consider `CCC(C(=O)N1CCN(c2ccccn2)CC1)n1c(C)c2cnn(-c3ccccc3)c(=O)c2c1C` (stereo unspecified), for which the RP-LC retention time came out at 632 s.
`O=C(NCc1ccccc1F)C1CCCN(c2nc3ccccc3n(Cc3ccccc3)c2=O)C1` (stereo unspecified) displayed an RP-LC retention time of 1150 s.
As for `CCCNC(=O)N1CCC2(CC1)Nc1cc(F)ccc1-n1cccc12`, the RP-LC retention time amounted to 888 s.
The result for `COc1ccc(-c2nnc(-c3ccc(C)c(S(=O)(=O)NCc4cccs4)c3)o2)cc1OC` reads 917 s.

These data come from the METLIN SMRT retention time set (Domingo-Almenara et al. 2019).
